Test results taken from patent US6852685B1, “Use of colostrinin, constituent peptides thereof, and analogs thereof to promote neuronal cell differentiation” (Board of Regents, The University of Texas System, priority 1999, dated 2005).
Entries after “also recorded” stand apart in the source; their conditions may differ.

Test system: medullary pheochromocytoma (PC12) cells
Assay: Effect on morphology (differentiation) of PC12 cells
Type: cell-based
Conditions: for Cell morphology: morphologies seen after treatment (list per substance, not tied to one concentration); for 1% FBS (cell differentiation) / 10% FBS (cell differentiation): six days after treatment
Protocol: Cells: PC12 cell line derived from medullary pheochromocytoma cells were used to undertake studies described bellow. PC 12 cells were obtained from the American Type Culture Collection and maintained in RPMI-1640 supplemented with 10% fetal bovine serum (HYCLONE Inc), penicillin (100 U/ml) and streptomycin (100 μg/ml).
Methods: To evaluate the effect of colostrum, colostrinin and its component peptides on cell differentiation 3×10^4 logarithmically replicating (70% confluence) PC12 cells were seeded in 24× well plates and cells were allowed to adhere and grow for 24 hours. Serum containing media were aspirated and replaced for serum-free RPMI containing appropriate amount of antibiotics. In four parallel, increasing concentrations (0.1, 1, 10 and 100 μg per ml) of colostrum, colostrinin and its component peptides were added directly into the media and incubated at 37° C. As a positive control, nerve growth factor (NGF) 7S (Gibco-BRL) was used at 100 ng per ml concentration (Chao, Cell, 69, 995-997 (1992); and Marshall et al., Cell 80, 179-185 (1995)). Phorbol 12-myristate 13-acetate (TPA: 10 ng per mil) was used as a negative control. Eight hours later the media were changed and RPMI-1640 was added containing 1% or 10% fetal bovine serum. The cultures were microscopically investigated 2nd, 4th and 6th days after treatment. Six days after treatment cells were fixed with paraformaldehyde (4%) and stained with 0.01% crystal violet solution. Excess of dyes were removed by ethanol washing. The final evaluation took place using a microscopy (Axiophot2 Zeiss Inc., Germany).

Q: CCCCCCCCCCCCCC(=O)O[C@@H]1[C@@H](C)[C@@]2(O)[C@@H](C=C(CO)C[C@]3(O)C(=O)C(C)=C[C@@H]23)[C@@H]2C(C)(C)[C@]12OC(C)=O [TPA, Phorbol 12-myristate 13-acetate, reference compound] was tested. Which Cell morphology did it give?
A: Its Cell morphology is “rounded”.

Q: DLEMPVLPVEPFPFV [SEQ ID NO:5] was tested. Which “1% FBS (cell differentiation)” value (0.1 μg/ml) did it give?
A: Its value is “− (− = ≦0.01% (back-ground))”.

Q: And the “1% FBS (cell differentiation)” value (1.0 μg/ml)?
A: Its value is “− (− = ≦0.01% (back-ground))”.

Q: And the “1% FBS (cell differentiation)” value (10 μg/ml)?
A: The value was “− (− = ≦0.01% (back-ground))”.

Q: And the “1% FBS (cell differentiation)” value (100 μg/ml)?
A: The value was “− (− = ≦0.01% (back-ground))”.

Q: And the “10% FBS (cell differentiation)” value (0.1 μg/ml)?
A: The value was “− (− = ≦0.01% (back-ground))”.

Q: And the “10% FBS (cell differentiation)” value (1.0 μg/ml)?
A: Its value is “− (− = ≦0.01% (back-ground))”.

Q: And the “10% FBS (cell differentiation)” value (100 μg/ml)?
A: Its value is “+ (+ = 1%)”.

Q: What about the Cell morphology of the same compound?
A: Its Cell morphology is “fibroblast-like; also recorded: epitheloid; also recorded: neuron-like”.

Q: What does the source list for DQPPDVEKPDLQPFQVQS [SEQ ID NO:3]?
A: 1% FBS (cell differentiation) (0.1 μg/ml): − (− = ≦0.01% (back-ground)); 1% FBS (cell differentiation) (1.0 μg/ml): − (− = ≦0.01% (back-ground)); 1% FBS (cell differentiation) (10 μg/ml): − (− = ≦0.01% (back-ground)); 1% FBS (cell differentiation) (100 μg/ml): − (− = ≦0.01% (back-ground)); 10% FBS (cell differentiation) (0.1 μg/ml): − (− = ≦0.01% (back-ground)); 10% FBS (cell differentiation) (10 μg/ml): + (+ = 1%); 10% FBS (cell differentiation) (100 μg/ml): + (+ = 1%); Cell morphology: fibroblast-like; also recorded: neuron-like

Q: What does the source list for LFFFLPVVNVLP [SEQ ID NO:4]?
A: 1% FBS (cell differentiation) (0.1 μg/ml): − (− = ≦0.01% (back-ground)); 1% FBS (cell differentiation) (1.0 μg/ml): − (− = ≦0.01% (back-ground)); 1% FBS (cell differentiation) (10 μg/ml): − (− = ≦0.01% (back-ground)); 1% FBS (cell differentiation) (100 μg/ml): − (− = ≦0.01% (back-ground)); 10% FBS (cell differentiation) (0.1 μg/ml): − (− = ≦0.01% (back-ground)); 10% FBS (cell differentiation) (1.0 μg/ml): + (+ = 1%); 10% FBS (cell differentiation) (10 μg/ml): ++ (++ = 1-5%); 10% FBS (cell differentiation) (100 μg/ml): ++ (++ = 1-5%); Cell morphology: fibroblast-like; also recorded: epitheloid; also recorded: neuron-like

Q: With LKPFPKLKVEVFPFP [SEQ ID NO:8] as the compound, how does the “1% FBS (cell differentiation)” value (0.1 μg/ml) read?
A: The value was “− (− = ≦0.01% (back-ground))”.

Q: And the “1% FBS (cell differentiation)” value (1.0 μg/ml)?
A: Its value is “− (− = ≦0.01% (back-ground))”.

Q: What about the “1% FBS (cell differentiation)” value (10 μg/ml) of the same compound?
A: Its value is “− (− = ≦0.01% (back-ground))”.

Q: What about the “1% FBS (cell differentiation)” value (100 μg/ml) of the same compound?
A: Its value is “− (− = ≦0.01% (back-ground))”.

Q: And the “10% FBS (cell differentiation)” value (0.1 μg/ml)?
A: The value was “− (− = ≦0.01% (back-ground))”.

Q: And the “10% FBS (cell differentiation)” value (1.0 μg/ml)?
A: The value was “++ (++ = 1-5%)”.

Q: What about the “10% FBS (cell differentiation)” value (10 μg/ml) of the same compound?
A: The value was “+ (+ = 1%)”.

Q: And the “10% FBS (cell differentiation)” value (100 μg/ml)?
A: Its value is “− (− = ≦0.01% (back-ground))”.

Q: What about the Cell morphology of the same compound?
A: The Cell morphology was “fibroblast-like; also recorded: neuron-like”.

Q: For LQTPQPLLQVMMEPQGD [SEQ ID NO:2], which “1% FBS (cell differentiation)” value (0.1 μg/ml) is on record?
A: The value was “− (− = ≦0.01% (back-ground))”.

Q: And the “1% FBS (cell differentiation)” value (1.0 μg/ml)?
A: Its value is “− (− = ≦0.01% (back-ground))”.

Q: What about the “1% FBS (cell differentiation)” value (10 μg/ml) of the same compound?
A: The value was “+ (+ = 1%)”.

Q: And the “1% FBS (cell differentiation)” value (100 μg/ml)?
A: The value was “− (− = ≦0.01% (back-ground))”.

Q: And the “10% FBS (cell differentiation)” value (1.0 μg/ml)?
A: Its value is “++ (++ = 1-5%)”.

Q: And the “10% FBS (cell differentiation)” value (10 μg/ml)?
A: The value was “++ (++ = 1-5%)”.

Q: What about the “10% FBS (cell differentiation)” value (100 μg/ml) of the same compound?
A: Its value is “+ (+ = 1%)”.

Q: And the Cell morphology?
A: The Cell morphology was “fibroblast-like; also recorded: neuron-like”.

Q: What does the source list for MPQNFYKLPQM [SEQ ID NO:6]?
A: 1% FBS (cell differentiation) (0.1 μg/ml): − (− = ≦0.01% (back-ground)); 1% FBS (cell differentiation) (1.0 μg/ml): − (− = ≦0.01% (back-ground)); 1% FBS (cell differentiation) (10 μg/ml): − (− = ≦0.01% (back-ground)); 1% FBS (cell differentiation) (100 μg/ml): − (− = ≦0.01% (back-ground)); 10% FBS (cell differentiation) (0.1 μg/ml): − (− = ≦0.01% (back-ground)); 10% FBS (cell differentiation) (10 μg/ml): + (+ = 1%); 10% FBS (cell differentiation) (100 μg/ml): + (+ = 1%); Cell morphology: fibroblast-like; also recorded: epitheloid

Q: Which “1% FBS (cell differentiation)” value (0.1 μg/ml) does the source give for MQPPPLP [SEQ ID NO:1] here?
A: The value was “− (− = ≦0.01% (back-ground))”.

Q: And the “1% FBS (cell differentiation)” value (1.0 μg/ml)?
A: Its value is “− (− = ≦0.01% (back-ground))”.

Q: And the “1% FBS (cell differentiation)” value (10 μg/ml)?
A: The value was “− (− = ≦0.01% (back-ground))”.

Q: And the “1% FBS (cell differentiation)” value (100 μg/ml)?
A: Its value is “− (− = ≦0.01% (back-ground))”.

Q: And the “10% FBS (cell differentiation)” value (1.0 μg/ml)?
A: Its value is “+ (+ = 1%)”.

Q: What about the “10% FBS (cell differentiation)” value (10 μg/ml) of the same compound?
A: The value was “++ (++ = 1-5%)”.

Q: And the Cell morphology?
A: The Cell morphology was “epitheloid; also recorded: neuron-like”.

Q: For VESYVPLFP [SEQ ID NO:31], which “1% FBS (cell differentiation)” value (1.0 μg/ml) is on record?
A: Its value is “− (− = ≦0.01% (back-ground))”.

Q: And the “1% FBS (cell differentiation)” value (10 μg/ml)?
A: Its value is “− (− = ≦0.01% (back-ground))”.

Q: And the “10% FBS (cell differentiation)” value (0.1 μg/ml)?
A: The value was “− (− = ≦0.01% (back-ground))”.

Q: What about the Cell morphology of the same compound?
A: The Cell morphology was “fibroblast-like; also recorded: neuron-like”.

Q: VLEMKFPPPPQETVT [SEQ ID NO:7] was tested. Which “1% FBS (cell differentiation)” value (0.1 μg/ml) did it give?
A: Its value is “− (− = ≦0.01% (back-ground))”.

Q: And the “1% FBS (cell differentiation)” value (1.0 μg/ml)?
A: The value was “− (− = ≦0.01% (back-ground))”.

Q: What about the “1% FBS (cell differentiation)” value (10 μg/ml) of the same compound?
A: Its value is “− (− = ≦0.01% (back-ground))”.

Q: What about the “1% FBS (cell differentiation)” value (100 μg/ml) of the same compound?
A: The value was “− (− = ≦0.01% (back-ground))”.

Q: And the “10% FBS (cell differentiation)” value (0.1 μg/ml)?
A: The value was “− (− = ≦0.01% (back-ground))”.

Q: What about the “10% FBS (cell differentiation)” value (1.0 μg/ml) of the same compound?
A: The value was “+ (+ = 1%)”.

Q: What about the “10% FBS (cell differentiation)” value (10 μg/ml) of the same compound?
A: Its value is “+ (+ = 1%)”.

Q: And the Cell morphology?
A: Its Cell morphology is “fibroblast-like; also recorded: neuron-like”.
